Publication PMC7497641, “Neurotropic activity and safety of methylene-cycloalkylacetate (MCA) derivative 3-(3-allyl-2-methylenecyclohexyl) propanoic acid” (ACS Chemical Neuroscience, 2020)

How the values were obtained:
[1] = test system: PGE2 production in PC12 cells; experiment: PGE2 production measured by ELISA; details: different concentrations of HU-MCA-13, dose-dependent; 24 h
[2] = Acute (single-dose) oral toxicity, pathology of major organs; assay type: in vivo; details: 2000 mg/kg orally
Procedure: Prioritizing compounds with a lower chance of causing toxicity, early in the drug discovery process, would help in the drug development process.[30] With this consideration we conducted acute (single-dose) toxicity study[31] to determine the short-term adverse pathological effects on major mice organs of HU-MCA-13 when administered in mice in a single dose, for a period of 24 h. One group of 5 mice received HU-MCA-13 orally at a dose of 2000 mg/kg, dissolved in a nano-emulsifying drug delivery system[32] in a bolus of 0.4 mL/mouse. After 24 h exposure, the animals were sacrificed, and organs were harvest for pathology analyses. […] This finding was not related to the tested compound and was considered as an accidental finding. This information on the lack of acute toxicity of HU-MCA-13 may predict the safety of this compound in future therapeutic evaluation.
C57Bl/6 mice, 8 weeks old, obtained from Envigo animal breeding center were used in the study. All experiments were approved by the Institutional Animal Care and Use Committee and performed according to OECD guidelines for testing of chemicals.[53] Organs were harvested from mice that were administered with MCA-13 for the detection of possible toxicological lesions in the framework of a safety assessment. […]

[3] = target: T1, Nicotinic acetylcholine Receptor alpha-4 beta-2 (nAChR(a4/b2)) (Homo sapiens, UniProt P17787+P43681); experiment: cell-based; details: Ion channel, read-out: RC50 (the source's name)
T1 construct: host or cells: unnamed DiscoverX cell line
T1 sequence (P43681 29-627 limits assumed): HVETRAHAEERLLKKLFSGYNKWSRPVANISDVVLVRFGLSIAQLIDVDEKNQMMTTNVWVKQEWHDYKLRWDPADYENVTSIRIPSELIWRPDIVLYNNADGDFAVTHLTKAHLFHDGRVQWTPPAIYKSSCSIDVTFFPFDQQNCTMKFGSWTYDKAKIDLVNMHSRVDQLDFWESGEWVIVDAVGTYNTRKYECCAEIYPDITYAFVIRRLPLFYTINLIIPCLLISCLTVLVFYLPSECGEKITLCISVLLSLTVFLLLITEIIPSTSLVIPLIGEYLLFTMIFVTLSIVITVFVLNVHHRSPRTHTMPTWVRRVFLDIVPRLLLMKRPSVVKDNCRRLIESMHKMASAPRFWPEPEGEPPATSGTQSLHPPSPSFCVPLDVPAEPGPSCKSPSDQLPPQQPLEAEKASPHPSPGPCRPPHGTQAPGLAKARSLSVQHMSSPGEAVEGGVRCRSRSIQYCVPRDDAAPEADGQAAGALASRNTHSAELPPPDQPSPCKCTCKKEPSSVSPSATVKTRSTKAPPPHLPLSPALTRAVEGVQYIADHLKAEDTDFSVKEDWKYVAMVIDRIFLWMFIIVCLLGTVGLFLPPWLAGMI
T1 sequence (P17787 26-502): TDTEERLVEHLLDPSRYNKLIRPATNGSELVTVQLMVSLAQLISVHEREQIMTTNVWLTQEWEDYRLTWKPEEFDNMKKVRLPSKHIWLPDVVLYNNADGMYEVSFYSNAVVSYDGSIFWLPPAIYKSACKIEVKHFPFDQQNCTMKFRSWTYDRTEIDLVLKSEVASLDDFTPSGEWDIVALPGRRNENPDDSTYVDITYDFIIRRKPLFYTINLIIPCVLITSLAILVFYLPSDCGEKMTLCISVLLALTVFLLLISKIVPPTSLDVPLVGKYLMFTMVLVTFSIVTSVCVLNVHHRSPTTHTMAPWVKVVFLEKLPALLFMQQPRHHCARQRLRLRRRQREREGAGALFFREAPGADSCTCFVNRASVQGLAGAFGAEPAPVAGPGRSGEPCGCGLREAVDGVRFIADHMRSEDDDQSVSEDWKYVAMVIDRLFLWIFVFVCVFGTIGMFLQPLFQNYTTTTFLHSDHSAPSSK

[4] = target: T2, N-methyl-D-aspartate (NMDA) Glutamate Receptor 1A/2B (NMDAR (1A/2B)) (Homo sapiens, UniProt Q05586+Q13224); experiment: SAFETYscan Ion channel assay; assay type: cell-based
T2 construct: host or cells: unnamed DiscoverX cell line
T2 sequence (Q13224 27-1484, other chains not shown): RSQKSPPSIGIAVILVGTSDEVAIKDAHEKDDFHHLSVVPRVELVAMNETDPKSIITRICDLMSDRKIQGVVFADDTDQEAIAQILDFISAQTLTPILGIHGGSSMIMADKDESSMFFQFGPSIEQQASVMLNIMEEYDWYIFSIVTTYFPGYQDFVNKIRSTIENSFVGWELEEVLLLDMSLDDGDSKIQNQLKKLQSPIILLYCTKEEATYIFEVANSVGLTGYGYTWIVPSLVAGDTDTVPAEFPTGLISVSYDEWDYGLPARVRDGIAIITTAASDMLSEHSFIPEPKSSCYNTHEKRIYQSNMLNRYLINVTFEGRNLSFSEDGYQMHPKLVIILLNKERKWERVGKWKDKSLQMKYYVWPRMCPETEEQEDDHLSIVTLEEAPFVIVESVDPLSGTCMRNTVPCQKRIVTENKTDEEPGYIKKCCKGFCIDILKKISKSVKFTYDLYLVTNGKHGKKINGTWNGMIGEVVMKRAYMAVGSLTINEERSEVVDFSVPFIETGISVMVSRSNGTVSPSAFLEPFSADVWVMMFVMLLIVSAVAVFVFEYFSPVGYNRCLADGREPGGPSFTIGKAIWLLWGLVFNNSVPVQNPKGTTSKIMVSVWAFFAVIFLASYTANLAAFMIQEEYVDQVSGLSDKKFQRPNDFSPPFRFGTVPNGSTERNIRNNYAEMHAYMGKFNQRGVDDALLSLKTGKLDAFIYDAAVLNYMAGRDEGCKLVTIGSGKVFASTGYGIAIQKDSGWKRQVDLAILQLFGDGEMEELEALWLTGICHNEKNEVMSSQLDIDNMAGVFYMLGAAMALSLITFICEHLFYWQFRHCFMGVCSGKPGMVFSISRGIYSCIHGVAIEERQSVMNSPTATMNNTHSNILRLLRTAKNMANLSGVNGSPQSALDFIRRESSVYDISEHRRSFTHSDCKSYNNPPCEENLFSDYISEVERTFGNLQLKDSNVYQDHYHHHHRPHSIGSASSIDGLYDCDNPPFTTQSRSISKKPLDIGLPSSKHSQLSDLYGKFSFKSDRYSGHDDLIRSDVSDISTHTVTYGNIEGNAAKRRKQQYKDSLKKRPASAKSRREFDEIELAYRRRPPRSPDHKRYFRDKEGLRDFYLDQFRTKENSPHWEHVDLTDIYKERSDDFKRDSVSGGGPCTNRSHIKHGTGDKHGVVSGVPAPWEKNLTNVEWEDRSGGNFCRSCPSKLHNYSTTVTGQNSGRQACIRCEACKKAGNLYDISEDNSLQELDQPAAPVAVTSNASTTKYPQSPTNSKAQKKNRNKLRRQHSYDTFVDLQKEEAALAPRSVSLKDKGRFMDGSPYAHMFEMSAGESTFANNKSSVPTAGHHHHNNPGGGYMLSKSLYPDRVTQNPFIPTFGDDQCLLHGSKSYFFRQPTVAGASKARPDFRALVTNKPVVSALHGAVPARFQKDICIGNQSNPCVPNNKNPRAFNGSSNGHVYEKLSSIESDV

[5] = test system: neurons from the spinal cord; experiment: Spinal cord neuron survival; assay type: cell-based, rat; details: in the presence of HU-MCA-13; 48 h in culture
Procedure: We also examined whether HU-MCA-13 would promote the survival of neurons from the spinal cord, by counting the number of neurons remaining after 48 h in culture. From our counts we estimated that 58 ± 10% of the neurons present at 3 h after plating survived for 48 h in the presence of HU-MCA-13, compared with only 35 ± 5% for neurons cultured without HU-MCA-13.
Spinal cords were isolated from adult rats (4–6 months old), and the meninges were removed from the spinal cord. The spinal cord was then cut into small pieces and collected in cold Hibernate A (Brainbits, Springfield, IL, USA), glutamine (0.5 mM), and B27 (Invitrogen, Carlsbad, CA). Briefly, dissected pieces of adult rat spinal cord tissue were maintained in phosphate-buffered saline (PBS) without Ca^2+ and Mg^2+ and pooled together and transferred to an enzymatic dissociation media containing 20 IU/ml papain in Earle’s balanced salt solution (Worthington Biochemical, Freehold, NJ) and incubated for 30 min at 37 °C. […] Neurite outgrowth was measured and presented as mean length of a neurite (microns). To measure neuronal survival, 450 cells were counted in 10 randomly chosen microscope fields of a known area in each of the three dishes per condition using a 20× objective and phase-contrast optics. […]

Cyclooxygenase 2 (COX 2) = target: T3, Cyclooxygenase 2 (COX 2) (Homo sapiens, UniProt P35354); experiment: biochemical; details: Inhibitor, Enzymatic
T3 construct: purchased BPS Bioscience
T3 sequence (P35354 18-604): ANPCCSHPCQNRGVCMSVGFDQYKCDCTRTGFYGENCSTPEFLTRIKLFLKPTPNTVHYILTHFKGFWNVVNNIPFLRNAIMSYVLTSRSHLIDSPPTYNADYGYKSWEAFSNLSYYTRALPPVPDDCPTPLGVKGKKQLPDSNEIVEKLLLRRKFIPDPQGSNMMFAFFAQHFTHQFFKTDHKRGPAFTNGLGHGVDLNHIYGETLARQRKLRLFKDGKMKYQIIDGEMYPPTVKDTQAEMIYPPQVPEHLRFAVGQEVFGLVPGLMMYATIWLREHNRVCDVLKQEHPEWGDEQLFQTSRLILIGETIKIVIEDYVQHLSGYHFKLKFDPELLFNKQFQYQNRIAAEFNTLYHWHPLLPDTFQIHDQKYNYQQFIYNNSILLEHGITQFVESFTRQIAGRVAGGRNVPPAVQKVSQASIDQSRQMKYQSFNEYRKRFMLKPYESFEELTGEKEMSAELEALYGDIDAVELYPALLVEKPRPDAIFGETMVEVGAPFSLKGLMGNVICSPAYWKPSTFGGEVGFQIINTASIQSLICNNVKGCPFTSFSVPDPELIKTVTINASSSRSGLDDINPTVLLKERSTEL

[6] = target: T4, Cannabinoid Receptor 2 (CNR2) (Homo sapiens, UniProt P34972); experiment: SAFETYscan GPCR cAMP; assay type: cell-based
T4 construct: host or cells: cAMP Hunter cell lines
T4 sequence (P34972 whole entry): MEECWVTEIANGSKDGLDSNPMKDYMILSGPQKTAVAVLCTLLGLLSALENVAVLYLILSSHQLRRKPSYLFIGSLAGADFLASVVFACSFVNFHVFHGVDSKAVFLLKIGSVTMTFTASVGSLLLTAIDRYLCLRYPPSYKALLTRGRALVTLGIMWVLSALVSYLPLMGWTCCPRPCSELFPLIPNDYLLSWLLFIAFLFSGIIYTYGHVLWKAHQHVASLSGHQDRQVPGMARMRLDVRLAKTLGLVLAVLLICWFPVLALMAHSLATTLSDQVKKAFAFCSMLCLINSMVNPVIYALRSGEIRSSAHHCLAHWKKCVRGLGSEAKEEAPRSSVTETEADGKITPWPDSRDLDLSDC

[7] = target: Muscarinic acetylcholine Receptor M3 (CHRM3) (Homo sapiens, UniProt P20309); experiment: cell-based; details: Calcium Flux, read-out: RC50 (the source's name)
Muscarinic acetylcholine Receptor M3 (CHRM3), sequence (P20309 whole entry): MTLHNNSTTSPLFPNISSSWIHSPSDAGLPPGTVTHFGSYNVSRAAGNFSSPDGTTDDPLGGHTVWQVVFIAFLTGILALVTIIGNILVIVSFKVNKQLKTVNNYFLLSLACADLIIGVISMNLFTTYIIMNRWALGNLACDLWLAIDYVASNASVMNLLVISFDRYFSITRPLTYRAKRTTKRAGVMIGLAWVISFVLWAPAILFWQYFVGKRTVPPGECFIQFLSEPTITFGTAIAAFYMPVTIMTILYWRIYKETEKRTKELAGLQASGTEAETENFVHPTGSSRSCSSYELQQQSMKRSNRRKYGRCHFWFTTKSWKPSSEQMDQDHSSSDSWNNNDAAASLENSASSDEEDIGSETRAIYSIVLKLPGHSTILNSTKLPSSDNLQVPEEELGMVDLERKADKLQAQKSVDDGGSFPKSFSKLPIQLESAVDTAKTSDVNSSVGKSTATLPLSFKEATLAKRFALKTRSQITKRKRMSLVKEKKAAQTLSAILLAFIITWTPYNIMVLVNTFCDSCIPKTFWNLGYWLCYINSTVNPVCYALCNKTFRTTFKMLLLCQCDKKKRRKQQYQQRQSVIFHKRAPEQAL

SMILES: C=CCC1CCCC(CCC(=O)O)C1=C (centres unmarked) [HU-MCA-13, 3-(3-allyl-2-methylenecyclohexyl)propanoic acid]
- increase of PGE2 production over control, untreated cultures [1]: 3–6 fold
- cytotoxic lesions in all organs (histopathology) ([2]; single dose in nano-emulsifying drug delivery system, 24 h): no cytotoxic lesions were found
- finding in last part of colon, rectum and adjacent anal unhaired skin ([2]; in three animals, considered accidental, not related to the tested compound): severe purulent, necrotizing inflammation
- IC50 ([3]; Blocker): > 10 µM
- EC50 ([3]; Opener): > 10 µM
- EC50 [4]: > 10 µM
- IC50 [4]: > 10 µM
- neurons present at 3 h after plating that survived for 48 h [5]: 58 ± 10%
- inhibition at 10 µM (Cyclooxygenase 2 (COX 2); 10 μM, read-out: MCA-13 Max. Responce): 7.99%
- IC50 (Cyclooxygenase 2 (COX 2); read-out: RC50 (the source's name)): > 10 µM
- EC50 [6]: > 10 µM
- IC50 [6]: > 10 µM
- EC50 ([7]; Agonist): > 10 µM
- IC50 ([7]; Antagonist): > 10 µM
